From patent US20040248806A1, “Compounds comprising an analgesic molecule linked to a vector that can vectorise said molecule through the hematoencephalic barrier and pharmaceutical compositions containing same” (priority 2001, published 2004)
Read-outs that look alike come from different tables or passages of the source. Non-standard residues stand in square brackets, D forms with d. Residues, ends and D or L forms follow the SMILES beside them. *: point of attachment. X1 = CN1CC[C@]23c4c5ccc(O)c4O[C@H]2[C@@H](O[C@@H]2O[C@H](C(=O)NCCS*)[C@@H](O)[C@H](O)[C@H]2O)C=C[C@H]3[C@H]1C5; Mpa = O=C(O)CCS

Columns and labels:
Tail flick test = type: in vivo, mouse; conditions: mice; for ED50: dose giving analgesic effect in 50% of the mice
Description: II.2. Assay Used: Tail Flick Test
a) Experimental Conditions
The mouse tail is placed in front of an infrared source. The light is focused on the ventral surface of the tail so as to produce a surface temperature of 55° C. As soon as the mouse moves the tail, the reaction time is then measured. The compounds studied are administered subcutaneously.
Three measurements are taken before administration of the product so as to have a baseline time. The percentage of mice in which analgesia has occurred is then represented by the number of mice having a reaction time which is at least double the baseline time divided by the total number of mice. The ED50 dose represents the concentration which gives 50% of mice in which analgesia has occurred.
[…]. We determined the ED50, which represents the dose which gives an analgesic effect in 50% of the mice in the “tail flick” model, for each product. […].

[1] = Respiratory depression (blood O2 saturation); type: in vivo, rat; conditions: rats, subcutaneous; for effect on oxygen saturation (FIG. 5, B and C) / oxygen level (SO2): 5×ED50 and 10×ED50 doses; for oxygen level (SO2): between 30 and 90 min; for effect on O2 saturation (FIG. 5, A): ED50 dose
Description: The respiratory depression was calculated in rats. The product is injected into the animals subcutaneously and, after a certain amount of time, an aliquot of blood is taken from the femoral artery via a catheter implanted beforehand. During the study, the animals are placed in a calm place. After the blood sample has been taken, the oxygen saturation (SO2) and the CO2 pressure (PCO2) are measured. The SO2 values are measured in % O2.

μ2 receptor = target: T1, μ2 receptor (Bos taurus, UniProt P79350); experiment: Receptor affinity, DAMGO binding in calf thalamus homogenate; conditions: DAMGO 1 nM with 5 nM DSLET
T1 construct: Tissue homogenates are prepared from calf brains; from tissue; host or cells: calf brain thalamus homogenate
Description: (§1) Tissue homogenates are prepared from calf brains (thalamus for μ1 and μ2 and frontal cortex for delta). [^3H][D-Ala^2,D-Leu^5]enkephalin (DADLE) (0.7 nM) is incubated with 3 ml of tissue homogenate (15 mg of tissue per ml) in the presence of 10 nM of [D-Pen^2,D-Pen^5]enkephalin (DPDPE) and of increasing concentrations of free or vectorized M6G. Under these conditions, specific binding to μ1 binding sites is observed. For the μ2 receptor, [D-Ala^2, MePhe^4,Gly(ol)^5]enkephalin (DAMGO) (1 nM) is incubated with 3 ml of tissue homogenate in the presence of 5 nM [D-Ser2,Leu^5]enkephalin-Thr^6 (DSLET) and of increasing concentrations of free or vectorized M6G. For the delta receptor, the tissue is incubated with [^3H] [D-Pen^2,D-Pen^5]enkephalin in the presence of free or vectorized M6G. The nonspecific binding is determined by adding to the labeled ligands 1 μM of levallorphan.

delta receptor = target: T2, delta receptor (Bos taurus, UniProt F1N083); experiment: Receptor affinity, [3H]DPDPE binding in calf frontal cortex homogenate
T2 construct: Tissue homogenates are prepared from calf brains; from tissue; host or cells: calf brain frontal cortex homogenate
Description: as §1

[2] = In situ brain perfusion (penetration through the BBB); type: in vivo; conditions: mouse, perfusion of 60 seconds in buffer
Text: a) Experimental Conditions: In Situ Brain Perfusion
Mice (20-25 g, Iffa-Credo; l'Arbresle, France) are anesthetized. After exposure of the common carotid, the right external carotid artery is ligated at the level of the bifurcation with the internal carotid, and the common carotid is ligated between the heart and the site of the implantation of the catheter (polyethylene catheter, ID: 0.76). Said catheter, pre-filled with a heparin solution (100 units/ml) is inserted into the common carotid. The mice are perfused with a perfusion buffer (128 mM NaCl, 24 mM NaHCO3, 4.2 mM KCl, 2.4 mM NaH2PO4, 1.5 mM CaCl2, 0.9 mM MgSO4 and 9 mM D-glucose). This buffer is filtered and then a mixture containing 95% O2/5% CO2 is bubbled through in order to maintain the pH in the region of 7.4 and to supply the brain with oxygen during the perfusion.
The mice are perfused with the buffer containing the free M6G (compound 1: specific activity 84 mCi/mg) or the vectorized M6G (compound 2; specific activity 14.3 mCi/mg). Just before the start of the perfusion, the heart is stopped by sectioning the ventricles, in order to avoid reflux of the perfusate during the perfusion. The right hemisphere is then perfused at a rate of 10 ml/min for 60 seconds, after which time the mouse is decapitated. The amount of radioactivity in the right hemisphere is then measured and the brain penetration index (Kin) is calculated. […]

μ1 receptor = experiment: Receptor affinity, [3H]DADLE binding in calf thalamus homogenate; conditions: [3H]DADLE 0.7 nM with 10 nM DPDPE
Description: as §1

[3] = systemic injection; cited from earlier work

T2 sequence (F1N083 1-372): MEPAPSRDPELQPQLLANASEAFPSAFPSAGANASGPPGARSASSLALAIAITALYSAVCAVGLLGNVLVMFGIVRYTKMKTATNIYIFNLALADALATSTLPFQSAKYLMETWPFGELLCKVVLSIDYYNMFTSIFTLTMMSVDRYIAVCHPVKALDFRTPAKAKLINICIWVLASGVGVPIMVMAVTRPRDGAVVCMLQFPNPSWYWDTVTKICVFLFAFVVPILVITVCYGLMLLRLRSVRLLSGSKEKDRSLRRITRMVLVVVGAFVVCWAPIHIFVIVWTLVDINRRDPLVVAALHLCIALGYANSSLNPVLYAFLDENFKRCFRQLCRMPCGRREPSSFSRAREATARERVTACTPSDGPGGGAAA
T1 sequence (P79350 whole entry): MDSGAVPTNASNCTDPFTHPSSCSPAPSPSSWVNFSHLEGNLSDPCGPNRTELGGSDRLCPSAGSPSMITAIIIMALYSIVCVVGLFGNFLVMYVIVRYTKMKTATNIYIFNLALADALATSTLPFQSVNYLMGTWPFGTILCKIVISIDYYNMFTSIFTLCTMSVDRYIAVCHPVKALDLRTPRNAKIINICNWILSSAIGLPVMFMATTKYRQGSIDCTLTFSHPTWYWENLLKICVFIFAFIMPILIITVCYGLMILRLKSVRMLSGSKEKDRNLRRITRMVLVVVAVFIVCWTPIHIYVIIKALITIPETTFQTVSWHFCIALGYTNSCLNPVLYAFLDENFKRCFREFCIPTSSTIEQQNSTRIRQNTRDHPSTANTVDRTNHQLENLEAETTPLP

## CN1CC[C@]23c4c5ccc(O)c4O[C@H]2[C@@H](O)C=C[C@H]3[C@H]1C5 [Compound 3, Morphine]
Tail flick test; Mus musculus, sc, subcutaneous, read-out: ED50
  ED50: 11.6 µmol/kg
Tail flick test; Mus musculus, intravenous, read-out: ED50
  ED50: 15.4 µmol/kg
Tail flick test; intravenous
  Duration of the effect: 60 min
Tail flick test; subcutaneous
  Duration of the effect: 90 min
[1]
  effect on oxygen saturation (FIG. 5, B and C): very significant decrease in the oxygen saturation
  oxygen level (SO2): ~50%
  effect on O2 saturation (FIG. 5, A): small decrease in O2 saturation

## CC(C)C[C@H](NC(=O)[C@H](CCCNC(=N)N)NC(=O)[C@H](CCCNC(=N)N)NC(=O)CCSSCCNC(=O)[C@H]1O[C@@H](O[C@H]2C=C[C@H]3[C@H]4Cc5ccc(O)c6c5[C@@]3(CCN4C)[C@H]2O6)[C@H](O)[C@@H](O)[C@@H]1O)C(=O)N[C@@H](CO)C(=O)N[C@@H](Cc1ccc(O)cc1)C(=O)N[C@@H](CO)C(=O)N[C@@H](CCCNC(=N)N)C(=O)N[C@@H](CCCNC(=N)N)C(=O)N[C@@H](CCCNC(=N)N)C(=O)N[C@@H](Cc1ccccc1)C(=O)O [Compound 2] ([Mpa](X1)RRLSYSRRRF-OH; C-terminus assumed)
μ2 receptor
  Ki: 0.6 nM
Delta receptor
  Ki: 19 nM
[2]
  increase in passage into the brain (Kin) versus free M6G (FIG. 4): approximately 100 fold
[1]
  effect on oxygen saturation (FIG. 5, B and C): no notable decrease
  effect on O2 saturation (FIG. 5, A): no effect

## CN1CC[C@]23c4c5ccc(O)c4O[C@H]2[C@@H](O[C@@H]2O[C@H](C(=O)O)[C@@H](O)[C@H](O)[C@H]2O)C=C[C@H]3[C@H]1C5 [Compound 1, morphine-6-glucuronide]
Tail flick test; intravenous
  Duration of the effect: 90 min
  ED50: >5.7 µmol/kg
Tail flick test; subcutaneous
  Duration of the effect: 150 min
  ED50: 6.6 µmol/kg
μ1 receptor
  Ki: 2.67 nM
μ2 receptor
  Ki: 5.82 nM
Delta receptor
  Ki: 23 nM
[1]
  effect on oxygen saturation (FIG. 5, B and C): very significant decrease in the oxygen saturation
  oxygen level (SO2): ~50%
  effect on O2 saturation (FIG. 5, A): no effect
[1]; 10×ED50 dose, 60 min time point
  mortality (FIG. 5, C): caused the death of some animals
[3]
  analgesic activity compared with morphine: roughly the same analgesic activity
